Laboratory results published in publication PMC4414711 (Chemico-biological interactions, 2014).
Where two headings read alike, the source gives them in different places.

Columns and labels:
AKR1C3 = biological target: T1, AKR1C3 (Homo sapiens, UniProt P42330); conditions: for IC50 Ratio 1C2:1C3: selectivity, ratio of IC50 values AKR1C2 to AKR1C3
T1 sequence (P42330 1-323): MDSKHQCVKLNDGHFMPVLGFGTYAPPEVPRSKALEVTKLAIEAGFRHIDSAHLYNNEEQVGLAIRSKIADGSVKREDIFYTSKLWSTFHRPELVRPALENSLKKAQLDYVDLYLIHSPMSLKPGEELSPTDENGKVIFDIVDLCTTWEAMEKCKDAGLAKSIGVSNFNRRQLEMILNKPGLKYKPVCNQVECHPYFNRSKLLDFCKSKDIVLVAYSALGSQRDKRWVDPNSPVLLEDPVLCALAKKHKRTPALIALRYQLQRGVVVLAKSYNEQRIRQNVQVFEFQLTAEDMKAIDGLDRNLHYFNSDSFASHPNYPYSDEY

AKR1C2 = biological target: T2, AKR1C2 (Homo sapiens, UniProt P52895)
T2 sequence (P52895 1-323): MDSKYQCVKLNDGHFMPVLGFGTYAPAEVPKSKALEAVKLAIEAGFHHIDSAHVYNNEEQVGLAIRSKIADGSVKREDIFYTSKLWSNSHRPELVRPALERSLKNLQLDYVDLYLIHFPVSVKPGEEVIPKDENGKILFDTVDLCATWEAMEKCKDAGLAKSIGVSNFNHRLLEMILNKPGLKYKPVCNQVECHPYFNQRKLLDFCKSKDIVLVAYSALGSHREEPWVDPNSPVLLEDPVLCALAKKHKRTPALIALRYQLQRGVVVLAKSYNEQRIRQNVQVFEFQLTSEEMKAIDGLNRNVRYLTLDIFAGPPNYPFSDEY

[1] = read-out: 1C3 IC50, recombinant AKR1C3, S-tetralol 165 μM (= Km), NADP+
[2] = read-out: 1C2 IC50, recombinant AKR1C2, S-tetralol 15 μM (= Km), NADP+

Row | decrease of the inhibitory selectivity (AKR1C3; in comparison to compound 8) | IC50 (AKR1C3; [1]) | IC50 Ratio 1C2:1C3 (AKR1C3) | IC50 (AKR1C2; [2]) | IC50 (AKR1C3) | IC50 (AKR1C2) | increase of the inhibitory selectivity (AKR1C3; in comparison to compound 8) | further decrease of inhibitory potency for AKR1C3 (AKR1C3; relative to compound 4) | further decrease of inhibitory potency for AKR1C2 (AKR1C2; relative to compound 4) | Compound
1 | 1.7 fold | 2.3 µM | 11 | 25 µM |  |  |  |  |  | O=C(O)C=Cc1ccc(OC(=O)CCc2ccccc2)cc1 (mixture of isomers) [Compound 10, (Z/E)-3-(4-((3-phenylpropanoyl)oxy)phenyl)acrylic acid]
2 |  | 632 µM | 0.04 | 27 µM |  |  |  |  |  | CC(C)(C)OC(=O)C=Cc1ccc(OC(=O)CCc2ccccc2)cc1 (mixture of isomers) [Compound 13, (Z/E)-tert-butyl 3-(4-(3-phenylpropanoyloxy)phenyl)acrylate]
3 |  |  | 0.3 |  | 607 µM | 153 µM |  |  |  | CC(C)=CCc1cc(/C=C/C(=O)OC(C)(C)C)ccc1OC(=O)CCc1ccccc1 [Compound 7, tert-butyl(2E)-3-[3-(3-methylbut-2-en-1-yl)-4-[(3-phenylpropanoyl)oxy]phenyl]prop-2-enoate]
4 |  | 4.7 µM | 19 | 88 µM |  |  |  |  |  | O=C(O)/C=C/c1ccc(OC(=O)CCc2ccccc2)cc1 [Compound 8, (2E)-3-prop-2-enoic acid]
5 |  |  | 28 |  | 0.96 µM | 27 µM | 1.5 fold |  |  | O=C(O)/C=C/c1cccc(OC(=O)CCc2ccccc2)c1 [Compound 9, (E)-3-(3-((3-phenylpropanoyl)oxy)phenyl)acrylic acid]
6 |  |  | 20 |  | 6.3 µM | 127 µM |  |  |  | O=C(O)/C=C/c1ccc(OC(=O)c2ccccc2)cc1 [Compound 11, (2E)-3-[4-(benzoyloxy)phenyl]prop-2-enoic acid]
7 |  |  | 1 |  | 68 µM | 88 µM |  |  |  | O=C(O)/C=C/c1ccc(OC(=O)c2ccncc2)cc1 [Compound 12, (2E)-3-[4-(pyridine-4-carbonyloxy)phenyl]prop-2-enoic acid]
8 |  | 86 µM | 5 | 389 µM |  |  |  |  |  | O=C(O)/C=C/c1cccc(O)c1 [Compound 15, m-coumaric acid]
9 |  | 21 µM | 20 | 421 µM |  |  |  |  |  | COc1cc(/C=C/C(=O)O)ccc1O [Compound 16, ferulic acid]
10 |  | 21 µM | 1 | 14 µM |  |  |  | 2 fold | 2 fold | (2E)-3-(3,3-dimethyl-3,4-dihydro-2H-1-benzopyran-6-yl)prop-2-enoate [Compound 5]

Row | Compound | decrease of the inhibitory selectivity (AKR1C3; in comparison to compound 8) | IC50 (AKR1C3; [1]) | IC50 Ratio 1C2:1C3 (AKR1C3) | IC50 (AKR1C2; [2]) | IC50 (AKR1C3) | IC50 (AKR1C2) | increase of the inhibitory selectivity (AKR1C3; in comparison to compound 8) | further decrease of inhibitory potency for AKR1C3 (AKR1C3; relative to compound 4) | further decrease of inhibitory potency for AKR1C2 (AKR1C2; relative to compound 4)
11 | O=C(O)/C=C/c1ccc(O)cc1 [Compound 14, p-coumaric acid] |  |  | 7 |  | 199 µM | 1300 µM |  |  | 
